Assay [1] can be described thus: Tested in vitro against HIV-1 MDR using MAGI assay.
The nature of assay [2]: Tested in vitro against HIV-1 LAI from MT-4 cells using MTT assay. A general note: Tetrazolium dyes change colour on reduction, which living cells bring about.

In general, EC50 refers to the concentration that produces a half-maximal response. Read a low EC50 as a more potent agent.

`C#C[C@]1(CO)O[C@@H](n2cc(C)c(N)nc2=O)C[C@H]1O` [4-Amino-1-(5-ethynyl-4-hydroxy-5-hydroxymethyl-tetrahydro-furan-2-yl)-5-methyl-1H-pyrimidin-2-one]: the concentration for a half-maximal effect (EC50) in assay [1] is 4.5 nM; in assay [2], 11 nM. In the same order, the values of `C#C[C@]1(CO)O[C@@H](n2cnc3cncnc32)C[C@H]1O` [2-Ethynyl-2-hydroxymethyl-5-purin-9-yl-tetrahydro-furan-3-ol] are 145000 nM and 117000 nM.

For the molecule `C#C[C@]1(CO)O[C@@H](n2cc(F)c(N)nc2=O)C[C@H]1O` [4-Amino-1-(5-ethynyl-4-hydroxy-5-hydroxymethyl-tetrahydro-furan-2-yl)-5-fluoro-1H-pyrimidin-2-one], the results for the EC50 in assay [1] and in assay [2] were 9 nM and 30 nM, respectively. For `C#C[C@]1(CO)O[C@@H](n2cnc3c(=O)[nH]cnc32)C[C@H]1O` [9-(5-Ethynyl-4-hydroxy-5-hydroxymethyl-tetrahydro-furan-2-yl)-9H-purin-6-ol], the EC50 in assay [1] worked out at 650 nM; in assay [2], 150 nM. The molecule `C#C[C@]1(CO)O[C@@H](n2cnc3c(N)ncnc32)C[C@H]1O` [5-(6-Amino-purin-9-yl)-2-ethynyl-2-hydroxymethyl-tetrahydro-furan-3-ol] returned an EC50 in assay [2] of 12 nM. That is a double-digit nanomolar value. The same measure, in the same setting: as for `C#C[C@]1(CO)O[C@@H](n2cnc3c(=O)[nH]c(N)nc32)C[C@H]1O` [2-Amino-9-(5-ethynyl-4-hydroxy-5-hydroxymethyl-tetrahydro-furan-2-yl)-9H-purin-6-ol], the figure is 1.4 nM.

For the molecule `C#C[C@]1(CO)O[C@@H](n2cc(C)c(=O)[nH]c2=O)C[C@H]1O` [1-(5-Ethynyl-4-hydroxy-5-hydroxymethyl-tetrahydro-furan-2-yl)-5-methyl-1H-pyrimidine-2,4-dione], the EC50 stood at 240 nM in assay [1] and 610 nM in assay [2].

In assay [2], `C#C[C@]1(CO)O[C@@H](n2cc(CC)c(=O)[nH]c2=O)C[C@H]1O` displayed an EC50 of more than 360000 nM. Take `Cc1cn([C@H]2C[C@H](N=[N+]=[N-])[C@@H](CO)O2)c(=O)[nH]c1=O` [1-((2R,4S,5S)-4-Azido-5-hydroxymethyl-tetrahydro-furan-2-yl)-5-methyl-1H-pyrimidine-2,4-dione]: the EC50 in assay [1] was 24900 nM; in assay [2], 38 nM. In the same order, the values of `C#C[C@]1(CO)O[C@@H](n2cnc3c(N)nc(N)nc32)C[C@H]1O` [5-(2,6-Diamino-purin-9-yl)-2-ethynyl-2-hydroxymethyl-tetrahydro-furan-3-ol] are 1.3 nM and 0.3 nM. In the same order, the values of `C#C[C@]1(CO)O[C@@H](n2cc(I)c(=O)[nH]c2=O)C[C@H]1O` [1-(5-Ethynyl-4-hydroxy-5-hydroxymethyl-tetrahydro-furan-2-yl)-5-iodo-1H-pyrimidine-2,4-dione] are 620 nM and 340 nM. Regarding `C#C[C@]1(CO)O[C@@H](n2cc(F)c(=O)[nH]c2=O)C[C@H]1O`, the EC50 in assay [2] is more than 10000 nM. The same measure, in the same setting: as for `C#C[C@]1(CO)O[C@@H](n2cc(Br)c(=O)[nH]c2=O)C[C@H]1O`, the figure is 2300 nM.

On to `C#C[C@]1(CO)O[C@@H](n2ccc(N)nc2=O)C[C@H]1O` [4-Amino-1-(5-ethynyl-4-hydroxy-5-hydroxymethyl-tetrahydro-furan-2-yl)-1H-pyrimidin-2-one], for which the EC50 in assay [1] was 1.5 nM; in assay [2], 4.8 nM. The molecule `C#C[C@]1(CO)O[C@@H](n2cc(Cl)c(=O)[nH]c2=O)C[C@H]1O` gave an EC50 in assay [2] of 6000 nM. That is a single-digit micromolar value.

The values above are taken from BindingDB's records for doi:10.1021/jm000209n (Tohoku University, 2000).
